Experiments:
[1] = tested on: White blood cell (WBC) counts; experiment: White blood cell (WBC) toxicity in mice; type: in vivo; details: FIG. 10
From the text: White blood cell (WBC) counts are important for immune mediated tumor clearance. In order to assess the level of WBC toxicity of induced by A-Platin relative the WBC lose was quantified in mice following treatment with drug along and drug administered in conjunction with radiation.

[2] = tested on: Primary human tonsil epithelial cells (HTE); experiment: Colony forming assay (crystal violet, A540) in primary HTE cells; type: cell-based; details: FIG. 7
[3] = tested on: SCC1 cells (HPV-human HNSCC); experiment: Colony forming assay (crystal violet, A540) in SCC1 cells; type: cell-based; details: 10-500 μM, p<0.03 compared to control, FIG. 7
Protocol: (§1) In order to further assess the effect of A-platin on cancer cell growth, colony forming assays using Head and Neck Squamous Cell Carcinoma (HNSCC) were preformed. Briefly, 10,000 cells were plated in triplicate in 6-well plates per treatment condition. The next day cells were treated with the cisplatin, A-platin, or G-platin at the variable doses. On day 6 from plating, cells were fixed in 70% ethanol and stained with 0.5% crystal violet in 10% ethanol. After sufficient washing and drying, cells were destained in 25% glacial acetic acid, and absorbance of 100 uL of each destain solution was read on a SpectraMax plate reader at 540 nm (A540). A540 is an indirect measure of the amount of crystal violet per well, and thus the number of cells per well.

[4] = tested on: SCC47 cells (HPV+ human HNSCC); experiment: Colony forming assay (crystal violet, A540) in SCC47 cells; type: cell-based; details: FIG. 7
Protocol: as §1

| SMILES | white blood cell loss ([1]; drug treatment alone groups) | white blood cell loss ([1]; drug+radiation groups) | cell number (A540) ([2]; 10-500 μM, p<0.04 compared to control) | cell number relative to control (A540) [3] | cell number relative to control (A540) ([4]; 50-500 μM, p<0.0007 compared to control) | cell number (A540) ([2]; 1-500 μM, p<0.007 compared to control) | cell number relative to control (A540) ([4]; 10-500 μM, p<0.008 compared to control) |
| --- | --- | --- | --- | --- | --- | --- | --- |
| N[C@@H](Cc1ccc(N=C(O)CCC(=O)[O][Pt]([NH2])([NH2])([OH])([Cl])[Cl])cc1)C(=O)O [AT-Platin] | less white blood cell loss | less white blood cell loss | – | – | – | – | – |
| N.N.[Cl][Pt][Cl] [Cisplatin, cis-diamminedichloroplatinum(II), reference compound] | – | – | reduced cell number | reduced cell number relative to control | reduced cell number relative to control | – | – |
| [NH2][Pt]([NH2])([OH])([Cl])([Cl])[O]C(=O)CCC(O)=N[C@@H]1C(O)[C@H](O)C(CO)O[C@@H]1O (some centres unmarked) [G-platin] | – | – | – | reduced cell number relative to control | – | reduced cell number | reduced cell number relative to control |

From patent US10383943B2, “Compositions and related methods for the treatment of cancer” (South Dakota Board of Regents, priority 2016, dated 2019)
